# Source: patent US9796733B2, “Imidazo-pyrazine derivatives useful as soluble guanylate cyclase activators” (Merck Sharp & Dohme Corp., priority 2014, dated 2017)
# Biological target: T1, sGC α1/β1 heterodimer (Homo sapiens, UniProt Q02108+Q02153)
# T1 construct: expressed in transfected cells; host or cells: CHO-K1 (clone #7, CHO-K1/sGC)
# T1 sequence (Q02108 1-690): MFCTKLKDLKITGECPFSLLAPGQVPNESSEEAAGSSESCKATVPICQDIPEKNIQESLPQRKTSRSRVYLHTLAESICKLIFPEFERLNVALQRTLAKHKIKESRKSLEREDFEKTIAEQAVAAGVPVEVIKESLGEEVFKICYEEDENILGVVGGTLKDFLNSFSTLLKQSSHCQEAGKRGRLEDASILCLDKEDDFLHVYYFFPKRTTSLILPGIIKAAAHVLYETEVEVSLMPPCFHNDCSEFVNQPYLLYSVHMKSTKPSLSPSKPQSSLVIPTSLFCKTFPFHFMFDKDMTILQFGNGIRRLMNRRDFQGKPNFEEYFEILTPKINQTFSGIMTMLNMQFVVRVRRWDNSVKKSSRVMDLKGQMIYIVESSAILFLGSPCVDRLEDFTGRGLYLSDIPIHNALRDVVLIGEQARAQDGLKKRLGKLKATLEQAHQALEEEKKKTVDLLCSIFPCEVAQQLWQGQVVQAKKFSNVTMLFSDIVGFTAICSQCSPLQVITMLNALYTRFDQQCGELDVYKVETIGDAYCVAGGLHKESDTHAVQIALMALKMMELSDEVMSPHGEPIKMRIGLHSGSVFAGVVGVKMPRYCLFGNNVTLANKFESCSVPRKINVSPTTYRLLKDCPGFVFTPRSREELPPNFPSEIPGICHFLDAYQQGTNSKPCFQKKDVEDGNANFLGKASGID
# T1 sequence (Q02153 1-619): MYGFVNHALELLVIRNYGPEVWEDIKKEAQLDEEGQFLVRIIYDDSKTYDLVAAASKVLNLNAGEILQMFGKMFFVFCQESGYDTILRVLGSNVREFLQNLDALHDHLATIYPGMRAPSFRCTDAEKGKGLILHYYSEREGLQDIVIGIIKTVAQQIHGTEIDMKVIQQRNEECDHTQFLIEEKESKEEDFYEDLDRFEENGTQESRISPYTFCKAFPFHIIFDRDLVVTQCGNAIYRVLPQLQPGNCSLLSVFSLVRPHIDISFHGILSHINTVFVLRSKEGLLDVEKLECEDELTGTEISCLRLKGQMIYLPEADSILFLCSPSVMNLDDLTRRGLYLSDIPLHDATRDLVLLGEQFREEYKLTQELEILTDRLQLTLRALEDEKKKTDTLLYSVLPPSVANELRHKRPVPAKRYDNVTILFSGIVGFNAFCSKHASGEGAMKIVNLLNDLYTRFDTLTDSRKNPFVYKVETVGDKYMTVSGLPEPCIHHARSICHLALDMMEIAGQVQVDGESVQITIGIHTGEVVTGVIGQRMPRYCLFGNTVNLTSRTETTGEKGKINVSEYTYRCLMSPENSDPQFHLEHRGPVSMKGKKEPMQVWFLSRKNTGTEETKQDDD
# Experiment: Cell-based sGC functional assay (CASA assay): cGMP generation in CHO-K1/sGC cells, HTRF detection
# Conditions: for Emax: CHO-K1, percent activation relative to standard Compound A in CHO-K1/sGC cells, read-out: % Act.; for EC50: inflection point (IP) of cGMP generation in CHO-K1/sGC cells, 4P fit, activity expressed as percentage of Compound A
# How it was run: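 Stable CHO-K1/sGC cells in EBSS buffer with 5 mM MgCl2, 0.05% BSA and 0.5 mM IBMX were incubated with compound (2.5% DMSO final) ±1 μM DETA-NO for 1 hr at 37° C. cGMP was measured by HTRF. Activation is expressed as % of reference HDA Compound A maximum, with IP and max fold induction from a 4P fit.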
Emax,EC50,SMILES
126%,387 nM,"Nc1nc(-c2cn3ccnc3c(CCC(F)(F)F)n2)nc2c1C(c1ncc(Cl)cn1)(C1CC1)C(=O)N2 (centres unmarked) [Example 374A, 4-amino-5-(5-chloropyrimidin-2-yl)-5-cyclopropyl-2-(8-(3,3,3-trifluoropropyl)imidazo[1,2-a]pyrazin-6-yl)-5H-pyrrolo[2,3-d]pyrimidin-6(7H)-one]"
86%,829 nM,"Nc1nc(-c2cn3cc(C(F)(F)F)nc3c(Cc3ccc(F)cc3)n2)nc2c1C(C(=O)NC1CC1)(C1CC1)C(=O)N2 (centres unmarked) [Example 50B, 4-amino-N,5-dicyclopropyl-2-(8-(4-fluorobenzyl)-2-(trifluoromethyl)imidazo[1,2-a]pyrazin-6-yl)-6-oxo-6,7-dihydro-5H-pyrrolo[2,3-d]pyrimidine-5-carboxamide]"
170%,155 nM,"CCCCc1nc(-c2nc(N)c3c(n2)NC(=O)C3(c2cc(C(F)(F)F)ccn2)C2CC2)cn2ccnc12 (single isomer, unassigned) [Example 367B, 4-amino-2-(8-butylimidazo[1,2-a]pyrazin-6-yl)-5-cyclopropyl-5-(4-(trifluoromethyl)pyridin-2-yl)-5H-pyrrolo[2,3-d]pyrimidin-6(7H)-one]"
80%,22 nM,"CCC1(c2ccc(F)cc2)C(=O)Nc2nc(-c3cn4c(F)cnc4c(CCC(F)(F)C(F)(F)F)n3)nc(N)c21 (centres unmarked) [Example 276A, 4-Amino-5-ethyl-2-(3-fluoro-8-(3,3,4,4,4-pentafluorobutyl)imidazo[1,2-a]pyrazin-6-yl)-5-(4-fluorophenyl)-5H-pyrrolo[2,3-d]pyrimidin-6(7H)-one]"
97%,41 nM,"CC(C)Cc1nc(-c2nc(N)c3c(n2)NC(=O)C3(C)c2ccc(Cl)cn2)cn2ccnc12 (centres unmarked) [Example 125A, 4-amino-5-(5-chloropyridin-2-yl)-2-(8-isobutylimidazo[1,2-a]pyrazin-6-yl)-5-methyl-5H-pyrrolo[2,3-d]pyrimidin-6(7H)-one]"
141%,4 nM,"CC1(c2ccc(F)cc2)C(=O)Nc2nc(-c3cn4ccnc4c(Cc4ccccc4F)n3)nc(N)c21 (centres unmarked) [Example 89A, 4-amino-2-(8-(2-fluorobenzyl)imidazo[1,2-a]pyrazin-6-yl)-5-(4-fluorophenyl)-5-methyl-5H-pyrrolo[2,3-d]pyrimidin-6(7H)-one]"
116%,89 nM,"CC1(c2ccc(F)cc2)C(=O)Nc2nc(-c3cn4c(Cl)cnc4c(CCC(F)(F)F)n3)nc(N)c21 (centres unmarked) [Example 258A, 4-amino-2-(3-chloro-8-(3,3,3-trifluoropropyl)imidazo[1,2-a]pyrazin-6-yl)-5-(4-fluorophenyl)-5-methyl-5H-pyrrolo[2,3-d]pyrimidin-6(7H)-one]"
99%,112 nM,"CC1(c2ccccc2)C(=O)Nc2nc(-c3cn4c(Cl)cnc4c(CCC(F)(F)F)n3)nc(N)c21 (centres unmarked) [Example 259B, 4-amino-2-(3-chloro-8-(3,3,3-trifluoropropyl)imidazo[1,2-a]pyrazin-6-yl)-5-methyl-5-phenyl-5H-pyrrolo[2,3-d]pyrimidin-6(7H)-one]"
119%,92 nM,"CC(C)(C)CCc1nc(-c2nc(N)c3c(n2)NC(=O)C3(C)c2ccc(F)cn2)cn2ccnc12 (centres unmarked) [Example 122B, 4-amino-2-(8-(3,3-dimethylbutyl)imidazo[1,2-a]pyrazin-6-yl)-5-(5-fluoropyridin-2-yl)-5-methyl-5H-pyrrolo[2,3-d]pyrimidin-6(7H)-one]"
140%,384 nM,"Cc1nc(C2(C3CC3)C(=O)Nc3nc(-c4cn5ccnc5c(CCCC(F)(F)F)n4)nc(N)c32)ccc1F (single isomer, unassigned) [Example 362B, 4-amino-5-cyclopropyl-5-(5-fluoro-6-methylpyridin-2-yl)-2-(8-(4,4,4-trifluorobutyl)imidazo[1,2-a]pyrazin-6-yl)-5H-pyrrolo[2,3-d]pyrimidin-6(7H)-one]"
83%,87 nM,"COc1ccc(C2(C)C(=O)Nc3nc(-c4cn5ccnc5c(CCCC(F)(F)F)n4)nc(N)c32)nc1 (centres unmarked) [Example 212B, 4-amino-5-(5-methoxypyridin-2-yl)-5-methyl-2-(8-(4,4,4-trifluorobutyl)imidazo[1,2-a]pyrazin-6-yl)-5H-pyrrolo[2,3-d]pyrimidin-6(7H)-one]"
119%,53 nM,"CC1(c2ccc(C(F)(F)F)cc2)C(=O)Nc2nc(-c3cn4ccnc4c(CCC(F)(F)C(F)(F)F)n3)nc(N)c21 (centres unmarked) [Example 237B, 4-amino-5-methyl-2-(8-(3,3,4,4,4-pentafluorobutyl)imidazo [1,2-a]pyrazin-6-yl)-5-(4-(trifluoromethyl)phenyl)-5H-pyrrolo[2,3-d]pyrimidin-6(7H)-one]"
121%,175 nM,"Cc1ccc(C2(C)C(=O)Nc3nc(-c4cn5ccnc5c(CCC(F)(F)C(F)(F)F)n4)nc(N)c32)nn1 (centres unmarked) [Example 252B, 4-amino-5-methyl-5-(6-methylpyridazin-3-yl)-2-(8-(3,3,4,4,4-pentafluorobutyl)imidazo [1,2-a]pyrazin-6-yl)-5H-pyrrolo[2,3-d]pyrimidin-6(7H)-one]"
124%,287 nM,"CC1(c2ccccn2)C(=O)Nc2nc(-c3cn4ccnc4c(CCC(F)(F)C(F)(F)F)n3)nc(N)c21 (centres unmarked) [Example 226A, 4-amino-5-methyl-2-(8-(3,3,4,4,4-pentafluorobutyl)imidazo [1,2-a]pyrazin-6-yl)-5-(pyridin-2-yl)-5H-pyrrolo[2,3-d]pyrimidin-6(7H)-one]"
149%,453 nM,"Nc1nc(-c2cn3ccnc3c(CCC(F)(F)C(F)(F)F)n2)nc2c1C(c1ccccn1)(C1CC1)C(=O)N2 (centres unmarked) [Example 382B, 4-Amino-5-cyclopropyl-2-(8-(3,3,4,4,4-pentafluorobutyl)imidazo[1,2-a]pyrazin-6-yl)-5-(pyridin-2-yl)-5H-pyrrolo[2,3-d]pyrimidin-6(7H)-one]"
91%,35 nM,"COc1ccc(C2(C)C(=O)Nc3nc(-c4cn5ccnc5c(CCC(F)(F)C(F)(F)F)n4)nc(N)c32)cn1 (centres unmarked) [Example 236B, 4-amino-5-(6-methoxypyridin-3-yl)-5-methyl-2-(8-(3,3,4,4,4-pentafluorobutyl)imidazo [1,2-a]pyrazin-6-yl)-5H-pyrrolo[2,3-d]pyrimidin-6(7H)-one]"
114%,121 nM,"CCOC(=O)CCNc1nc(-c2cn3ccnc3c(CCC(F)(F)F)n2)nc2c1C(C)(c1ccc(Cl)cc1)C(=O)N2 (centres unmarked) [Example 298A, ethyl 3-((5-(4-chlorophenyl)-5-methyl-6-oxo-2-(8-(3,3,3-trifluoropropyl)imidazo[1,2-a]pyrazin-6-yl)-6,7-dihydro-5H-pyrrolo[2,3-d]pyrimidin-4-yl)amino)propanoate]"
105%,61 nM,"CC(C)(C)CCc1nc(-c2nc(N)c3c(n2)NC(=O)C3(C)c2ccc(Cl)cn2)cn2ccnc12 (centres unmarked) [Example 123A, 4-amino-5-(5-chloropyridin-2-yl)-2-(8-(3,3-dimethylbutyl)imidazo[1,2-a]pyrazin-6-yl)-5-methyl-5H-pyrrolo[2,3-d]pyrimidin-6(7H)-one]"
127%,180 nM,"Cc1cc(C2(C3CC3)C(=O)Nc3nc(-c4cn5ccnc5c(CCC(F)(F)C(F)(F)F)n4)nc(N)c32)ncc1F (single isomer, unassigned) [Example 376B, 4-amino-5-cyclopropyl-5-(5-fluoro-4-methylpyridin-2-yl)-2-(8-(3,3,4,4,4-pentafluorobutyl)imidazo[1,2-a]pyrazin-6-yl)-5H-pyrrolo[2,3-d]pyrimidin-6(7H)-one]"
